What all share (type): physicochemical
The nature of series [1]: Physical state of the isolated dye. Particulars: for Physical State of Dye: after isolation according to Procedure B. An excerpt: alternatively, the crude liquid dye may be taken up with a volatile solvent and the solvent removed during the drying process to yield a non-volatile liquid colorant.
Series [2] can be described thus: Dissolution of 58% dye in 42% fuel by warming, cooling to 25° C. (six heating/diesel oils). The following applies: 58% by weight dye, warmed, cooled to 25° C. Here is the method: No. 2 Regular Grade Diesel Oil
Each dye-fuel oil mixture was warmed with stirring and then cooled to 25° C.

Series [3] can be described thus: Storage solubility in No. 1 and No. 2 Heating Oil at ambient temperature and -10° C. As to the method: The resultant mixtures were stored at ambient temperatures (20° to 25° C.) and at -10° C. Where any separation of dye occurred, the dye content of the remaining solution was determined colorimetrically.
Series [4] in a line: Storage solubility in xylene at 20°-25° C. and -10° C. As to the method:
The solutions obtained were stored at 20°-25°C. and at -10° C. Where any separation of dye occurred, the dye content of the remaining solution was determined colorimetrically.

A short description of series [5]: Dissolution of 58% dye in 42% fuel by warming, cooling to 25° C. (six heating/diesel oils).
Series [6] is described as follows: Rate and extent of dissolution in No. 1 and No. 2 Heating Oils at 25° C. (colorimetric). The following applies: for solubility in fuel oils (in words): No. 1 and No. 2 fuel oils; for dissolution in the heating oils: two minutes contact. Here is the method:
The solubility properties of each of the dyes of Examples 16-41 were evaluated in the fuels No. 1 and No. 2 Heating Oils, respectively. The procedure was as follows:
Where the dyes are solid dyes, excess of pulverized solid dye, far beyond that which would dissolve, i.e., 30 to 35% dye, was added to the respective oils at 25° C. and agitated at constant speed. Samples were removed at 1, 10 and 20 minute intervals, filtered, and the amount of dissolved dye determined colorimetrically.
The tarry non-solid dyes were charged in proportions of 50-60% dye to 50-40% oil rather than 30-35% used for the solid dyes. In fact, it was very difficult to stir the tarry dye-fuel oil mixture at a dye concentration of 50%. Samples for these dyes were taken after 2 minutes. The longer initial time for the tarry dyes was to permit reasonable contact between solvent and the viscous, condensed dye.

The nature of series [7]: General statements on solubility and dissolution rate in petroleum fuels.
Series [8] is described as follows: Equilibrium solubility of Solvent Red No. 19 in petroleum fuels (filtrate, colorimetric). As to the method: Solvent Red No. 19 was subjected to the same solubility test as set forth in Example 14.
In each instance, the precipitated mass was filtered and the dye content of the filtrate was determined colorimetrically.

[9] abbreviates: No. 1 Heating Oil, 20° C.-25° C. (Table 8).
Setting [10] is: No. 1 Heating Oil, -10° C. (Table 8).
Setting [11] is: No. 2 Heating Oil, 20° C.-25° C. (Table 9).
Setting [12] is: No. 2 Heating Oil, -10° C. (Table 9).
The mark [13] stands for this setting: No. 1 Heating Oil, 20° C.-25° C. (Table 10).
Setting [14] is: No. 1 Heating Oil, -10° C. (Table 10).
The mark [15] stands for this setting: No. 2 Heating Oil, 20° C.-25° C. (Table 11).
Setting [16] is: No. 2 Heating Oil, -10° C. (Table 11).
Setting [17] is: No. 1 Fuel Oil, 20 Minutes, 25° C., aminoazotoluene dyes (Table 6).
Where [18] appears, read: No. 2 Fuel Oil, 20 Minutes, 25° C., aminoazotoluene dyes (Table 7).
[19] abbreviates: No. 1 Fuel Oil, 1 Minute, 25° C., aminoazobenzene dyes (Table 4).
Setting [20] is: No. 1 Fuel Oil, 10 Minutes, 25° C., aminoazobenzene dyes (Table 4).
Where [21] appears, read: No. 1 Fuel Oil, 20 Minutes, 25° C., aminoazobenzene dyes (Table 4).
[22] abbreviates: No. 2 Fuel Oil, 1 Minute, 25° C., aminoazobenzene dyes (Table 5).
The mark [23] stands for this setting: No. 2 Fuel Oil, 10 Minutes, 25° C., aminoazobenzene dyes (Table 5).
The mark [24] stands for this setting: No. 2 Fuel Oil, 20 Minutes, 25° C., aminoazobenzene dyes (Table 5).

SMILES strings stand for the structures.

With `CCCCC(CC)CNc1ccc2ccccc2c1N=Nc1ccc(N=Nc2ccccc2)cc1C` (stereo not drawn) [Example 3], the “Physical State of Dye at 20° C.” value in series [1] is “Liquid”. The “behavior of dye-fuel oil mixture on cooling/storage” value (from here on “behavior … on cooling/storage”) in series [2] is “completely soluble and remained soluble at temperatures ranging from -10 °C to 25 °C”. For the same molecule, the “Solubility (% by Wt.)” value in series [3] (setting [9]), in series [3] (setting [10]), in series [3] (setting [11]), in series [3] (setting [12]), in series [4] (20° C.-25° C. (Table 12)) and in series [4] (-10° C. (Table 12)) was “Complete” in each case.

For `CCCCC(CC)COCCCNc1ccc2ccccc2c1N=Nc1ccc(N=Nc2ccccc2)cc1C` (stereo not drawn) [Example 9], in series [1], the “Physical State of Dye at 20° C.” value was “Tar”. Further, the “behavior … on cooling/storage” value in series [2] is given as “displayed some separation of dye upon lengthy storage”. Also, the “Solubility (% by Wt.)” value in series [3] (setting [13]) is 26.6 % by Wt; in series [3] (setting [14]), 9.5 % by Wt; in series [3] (setting [15]) it was 28.8 % by Wt; in series [3] (setting [16]) it was 9.5 % by Wt; in series [4] (20° C.-25° C. (Table 12)), “Complete”; in series [4] (-10° C. (Table 12)), 38.1 % by Wt. For the same molecule, the equilibrium solubilities entry in series [5] is “exceeded 25 percent by weight”.

With `CCCCC(CC)COCCCNc1ccc2ccccc2c1N=Nc1cc(C)c(N=Nc2ccccc2C)cc1C` (stereo not drawn) [Example 10], in series [1], the “Physical State of Dye at 20° C.” value is recorded as “Tar”. Also, the “behavior … on cooling/storage” value in series [2] is listed as “displayed some separation of dye upon lengthy storage”. Moreover, the “Solubility (% by Wt.)” value in series [3] (setting [13]) is 29.5 % by Wt; in series [3] (setting [14]), 19.8 % by Wt; in series [3] (setting [15]) it was 29.7 % by Wt; in series [3] (setting [16]), 12.1 % by Wt; in series [4] (20° C.-25° C. (Table 12)), 36.3 % by Wt; in series [4] (-10° C. (Table 12)), 20.8 % by Wt. Further, the equilibrium solubilities result in series [5] is “exceeded 25 percent by weight”.

As to `CCCCC(CC)CNc1ccc2ccccc2c1N=Nc1cc(C)c(N=Nc2ccccc2C)cc1C` (stereo not drawn) [Example 4], in series [1], the “Physical State of Dye at 20° C.” value was “Liquid”. Moreover, the “behavior … on cooling/storage” value in series [2] is “displayed some separation of dye upon lengthy storage”. In addition, the “Solubility (% by Wt.)” value in series [3] (setting [9]) is reported as 44.8 % by Wt; in series [3] (setting [11]), 44.1 % by Wt; in series [4] (20° C.-25° C. (Table 12)), 50.0 % by Wt; in series [4] (-10° C. (Table 12)) it was 25.0 % by Wt. Moreover, the equilibrium solubilities entry in series [5] is “exceeded 25 percent by weight”.

Turning to `CCCCC(CC)CNc1ccc2ccccc2c1N=Nc1ccc(N=Nc2ccccc2C)cc1C` (stereo not drawn) [Example 1], in series [1], the “Physical State of Dye at 20° C.” value is given as “Liquid”. In addition, in series [1] (listed as 38), the “Physical State of Dye” value is recorded as “liquid dye”. Also, in series [2], the “behavior … on cooling/storage” value is “completely soluble and remained soluble at temperatures ranging from -10 °C to 25 °C”. Moreover, the “Percent Dissolved” value in series [6] (setting [17]) was determined as 58.0%; in series [6] (No. 1 Fuel Oil, 2 min, aminoazotoluene dyes (Table 6)), 58.0%; in series [6] (setting [18]), 55.3%; in series [6] (No. 2 Fuel Oil, 2 min, aminoazotoluene dyes (Table 7)) it was 55.3%. Also, the “solubility in fuel oils (in words)” value in series [6] is on record as “exceptionally high solubility”. Moreover, in series [6], the “dissolution in the heating oils” value is given as “dissolved completely after two minutes contact”. Further, the “Solubility (% by Wt.)” value in series [3] (setting [9]), in series [3] (setting [10]), in series [3] (setting [11]), in series [3] (setting [12]), in series [4] (20° C.-25° C. (Table 12)) and in series [4] (-10° C. (Table 12)) was “Complete” throughout.

For the molecule `CCCCC(CC)COCCCNc1ccc2ccccc2c1N=Nc1ccc(N=Nc2ccccc2C)cc1C` (stereo not drawn) [Example 7], the “Physical State of Dye at 20° C.” value in series [1] is “Solid”. Also, the “Physical State of Dye” value in series [1] was “Solid”. The “behavior … on cooling/storage” value in series [2] was “precipitated as a solid mass almost immediately upon cooling to 25 °C”. Also, the “Percent Dissolved” value was found to be 6.44% in series [6] (No. 1 Fuel Oil, 1 Minute, 25° C., aminoazotoluene dyes (Table 6)); 7.41% in series [6] (No. 1 Fuel Oil, 10 Minutes, 25° C., aminoazotoluene dyes (Table 6)); 8.35% in series [6] (setting [17]); 6.12% in series [6] (No. 2 Fuel Oil, 1 Minute, 25° C., aminoazotoluene dyes (Table 7)); 6.85% in series [6] (No. 2 Fuel Oil, 10 Minutes, 25° C., aminoazotoluene dyes (Table 7)); 7.71% in series [6] (setting [18]). The “Solubility (% by Wt.)” value in series [3] (setting [13]) is 8.3 % by Wt; in series [3] (setting [15]), 7.7 % by Wt; in series [4] (20° C.-25° C. (Table 12)), “Complete”; in series [4] (-10° C. (Table 12)), 20.8 % by Wt. Further, the “solubility in petroleum fuels (in words)” value in series [7] is on record as “relatively low solubility in petroleum fuels”.

`CCNc1ccc2ccccc2c1N=Nc1ccc(N=Nc2ccccc2)cc1` [Solvent Red No. 19]: the “behavior … on cooling/storage” value in series [2] is recorded as “precipitation occurred immediately”. Besides, the “% by Weight Soluble (At Equilibrium)” value in series [8] (No. 1 Heating Oil) was 2.23 % by Weight; in series [8] (No. 1 Premium Diesel), 1.89 % by Weight; in series [8] (No. 2 Heating Oil) it was 3.41 % by Weight; in series [8] (No. 2 Premium Diesel), 2.30 % by Weight; in series [8] (No. 2 Regular Diesel), 2.63 % by Weight; in series [8] (No. 4 Heating Oil), 5.76 % by Weight.

On to `CCCCC(CC)CNc1ccc2ccccc2c1N=Nc1ccc(N=Nc2ccccc2)cc1` (stereo not drawn) [Example 2], for which the “Physical State of Dye at 20° C.” value in series [1] is reported as “Solid”. Moreover, in series [1], the “Physical State of Dye” value is reported as “Solid”. Also, the “behavior … on cooling/storage” value in series [2] was “precipitated as a solid mass almost immediately upon cooling to 25 °C”. The “Percent Dissolved” value in series [6] (setting [19]) came to 3.43%; in series [6] (setting [20]), 3.87%; in series [6] (setting [21]), 4.47%; in series [6] (setting [22]) it was 4.63%; in series [6] (setting [23]), 4.90%; in series [6] (setting [24]) it was 5.13%. Moreover, the “Solubility (% by Wt.)” value came to 4.4 % by Wt in series [3] (setting [9]), 5.1 % by Wt in series [3] (setting [11]), 25.5 % by Wt in series [4] (20° C.-25° C. (Table 12)) and 10.35 % by Wt in series [4] (-10° C. (Table 12)). Further, in series [7] (aromatic solvents, diesel and heating oils), the “crystallization from oily solvents” value is “crystallizes from oily solvents, including aromatic solvents, and diesel and heating oils”.

Take `CCCCC(CC)COCCCNc1ccc2ccccc2c1N=Nc1ccc(N=Nc2ccccc2)cc1` (stereo not drawn) [Example 8]: in series [1], the “Physical State of Dye at 20° C.” value was “Liquid”. In addition, in series [1] (listed as 27), the “Physical State of Dye” value is reported as “liquid”. Besides, the “behavior … on cooling/storage” value in series [2] is “completely soluble and remained soluble at temperatures ranging from -10 °C to 25 °C”. Further, the “Percent Dissolved” value worked out at 52.3% in series [6] (setting [21]); 52.3% in series [6] (No. 1 Fuel Oil, 2 min., aminoazobenzene dyes (Table 4)); 52.3% in series [6] (setting [24]); 52.3% in series [6] (No. 2 Fuel Oil, 2 min., aminoazobenzene dyes (Table 5)). The “solubility in fuel oils (in words)” value in series [6] is listed as “exceptionally high solubility”. In series [6], the “dissolution in the heating oils” value is “dissolved completely after two minutes contact”. For the same molecule, the “Solubility (% by Wt.)” value in series [3] (setting [13]), in series [3] (setting [14]), in series [3] (setting [15]), in series [3] (setting [16]), in series [4] (20° C.-25° C. (Table 12)) and in series [4] (-10° C. (Table 12)) was “Complete” throughout.

Regarding `CCCCCCCCCCNc1ccc2ccccc2c1N=Nc1ccc(N=Nc2ccccc2)cc1` [Example 26], the “Physical State of Dye” value in series [1] was “Solid”. Also, the “Percent Dissolved” value in series [6] (setting [19]) is recorded as 4.97%; in series [6] (setting [20]), 5.12%; in series [6] (setting [21]) it was 5.63%; in series [6] (setting [22]), 6.36%; in series [6] (setting [23]), 7.25%; in series [6] (setting [24]), 8.14%.
